According to publication PMC11982498 (Redox Biology, 2025):
Entries after “also recorded” stand apart in the source; their conditions may differ.

What was measured:
BCL-2 promoter i-motif = assay: CD melting experiment, BCL-2 i-motif; format: binding; conditions: BPES buffer pH 5.5; 20 equivalents (20 μM) compound
Method: (§1) CD-melting experiment was carried out following a published method without significant modification. BCL-2 promoter i-motif and G-quadruplex structures at a concentration of 5 μM were annealed in buffer at 95 °C for 10 min, and then cooled to room temperature. The annealed samples were incubated with B14 for 6 h, and then molar ellipticity at 287 nm for i-motif structure or 260 nm for G-quadruplex structure, where the CD value was the highest in our experiment, was measured over a temperature range of 20–90 °C at a heating rate of 0.5 °C/min. Tm values were determined and calculated through nonlinear regression curve fitting with software GraphPad Prism 9.0. (GraphPad Software Inc., California, USA).
(§2) Figure S6. CD melting experiments were performed to examine the effects of B14 and A22 on BCL-2 promoter i-motif and G-quadruplex. (A-H) CD melting experiments were performed for BCL-2 promoter i-motif or G-quadruplex in the absence or presence of B14 (2, 5, 20 equivalents) and A22 (20 equivalents). The oligonucleotide for BCL-2 i-motif was annealed in 1 X BPES buffer at pH 5.5, while the oligonucleotide for BCL-2 G-quadruplex was annealed in 20 mM Tris-HCl buffer with 20 mM NaCl at pH 7.4. The ΔTm values for the effects of B14 and A22 on BCL-2 promoter i-motif were determined to be 11.26 °C and 11.82 °C, respectively. […]

[1] = system: BCL-2 promoter G-quadruplex; assay: CD melting experiment, BCL-2 G-quadruplex; format: binding; conditions: Tris-HCl buffer pH 7.4; 20 equivalents (20 μM) compound
Method: as §1, §2

BCL-2 i-motif = assay: CD spectra of BCL-2 i-motif; format: binding
Method: (§3) Figure S5. ESI-MS, UV, CD, and EMSA experiments were performed to examine the effect of B14 on BCL-2 promoter i-motif and G-quadruplex. (A) ESI-MS experiment for oligomer BCL-2 G4 alone, which was annealed in 1 × BPES buffer at pH 7.4. (B) ESI-MS experiment for above oligomer BCL-2 G4 with addition of B14 in 1 × BPES buffer at pH 7.4. (C-D) TO displacement with increasing amount of oligomer BCL-2 i-motif annealed in 1 X BPES buffer at pH 5.5 in the presence of 20 equivalents of B14 or A22. (E) EMSA experiment was performed for the effect of B14 on inducing BCL-2 i-motif formation. The lanes from left to right were as follow: BCL-2 i-motif alone at pH 5.5; BCL-2 i-motif alone at pH 6.2; BCL-2 i-motif plus 1 eq B14 at pH 6.2; BCL-2 i-motif plus 5 eq B14 at pH 6.2; BCL-2 i-motif plus 10 eq B14 at pH 6.2. (F) CD experiment was performed to study the interaction of B14 or A22 with BCL-2 promoter i-motif.
CD measurements were performed on a Chirascan circular dichroism spectrophotometer (Chirascan, England). A 10 mm path length quartz cuvette was used to record the spectra with a wavelength range of 230-350 nm with a 1 nm bandwidth. CD and CD melting experiments were performed at a fixed i-motif or G-quadruplex concentration (1 μM) with or without a fixed concentration (20 μM) of B14 and Curcumin in different buffers. […]

[2] = system: BCL-2 (BCL-2 IM) (DNA, i motif) CAGCCCCGCTCCCGCCCCCTTCCTCCCGCGCCCGCCCCT; assay: CD melting, 287 nm; conditions: K+ 100 mM KCl plus potassium phosphate; BPES buffer, pH 5.5; 20 μM B14 (DNA 1, 2 or 5 μM, prints disagree)
[3] = system: F-BCL-2(G4) (DNA, G4) AGGGGCGGGCGCGGGAGGAAGGGGGCGGGAGCGGGGCTG; assay: MST; conditions: K+ 100 mM; 50 mM Tris-HCl, pH 7.4; highest B14 concentration 50 μM
[4] = molecular target: BCL-2 gene promoter i-motif; assay: SPR binding to BCL-2 promoter i-motif; conditions: MES buffer pH 5.5, 25 °C
Method: SPR measurement was performed on a ProteOn XPR36 protein interaction array system (Bio-Rad Laboratories, Hercules, California, USA) using a Neutravidin-coated GLH sensor chip. BCL-2 i-motif binding analysis was performed following a published method without significant modification. For immobilization, 5′-biotin-labeled DNA oligomers at 800 nM annealed in 1 × MES buffer at pH 5.5 by heating at 95 °C for 5 min, were attached to a reptavidin-coated sensor chip. Compounds were prepared through serial dilution with flowing buffer (20 mM MES, 100 mM KCl, pH 5.5 for i-motif) in at least 6 concentrations, which were simultaneously injected at a flow rate of […] for a 120 s of association phase, followed by 250 s of dissociation phase at 25 °C. Langmuir model was used for fitting kinetic data, which was analyzed with ProteOn manager software. KD values were determined through equation KD = kd/ka. Compound A22 was used as a positive control, and other compounds were selected as candidates only if their KD values for binding to BCL-2 i-motif were similar to that of A22.

BCL-2 G4 = assay: ESI-MS with BCL-2 G4; format: binding; conditions: pH 7.4
Method: The oligomer for BCL-2 promoter […] at concentration of 5 μM was annealed in 1 × BPES buffer with or without 20 μM B14 at 95 °C for 5 min, followed by cooling to room temperature. Mass spectrometry signals were collected by using ESI-MS (Thermo, LCQ DECA Plus XP) and analyzed by using pro-mass.
as §3

SMILES: O=C(CCN1CCOCC1)Nc1ccc2c(c1)c(=O)c1cc(NC(=O)CCN3CCOCC3)ccc1n2-c1ccc2occc2c1 [Compound B14]
- ΔTm (CD melting) (BCL-2 promoter i-motif): 11.26 °C
- ΔTm (CD melting) [1]: −3.13 °C
- CD absorption peak of BCL-2 i-motif (BCL-2 i-motif): stronger effect than A22; also recorded: apparently enhanced absorption peak at 286 nm
- ΔTm [2]: 11.26 °C
- KD [3]: 59750 nM
- Kd [4]: 2130 nM
- adduct peak in ESI-MS (BCL-2 G4): no corresponding binding peak appeared
